Measurements taken from publication PMC9629855, “Development of ASIC1a ligand-gated ion channel drug screening assays across multiple automated patch clamp platforms” (Frontiers in Molecular Neuroscience, 2022).
Where “and” joins values, the source holds several entries; their conditions need not be identical. Equal entries are not always repeated.

Legend:
Set-up in all cases: host or cells: CHO (tetracycline-inducible)
hASIC1a [1] = molecular target: T1, hASIC1a (Homo sapiens, UniProt P78348); assay: SyncroPatch 384i APC, CHO hASIC1a, puff / stacked puff application; assay type: cell-based; details: pH 6.5
T1 sequence (P78348 1-528): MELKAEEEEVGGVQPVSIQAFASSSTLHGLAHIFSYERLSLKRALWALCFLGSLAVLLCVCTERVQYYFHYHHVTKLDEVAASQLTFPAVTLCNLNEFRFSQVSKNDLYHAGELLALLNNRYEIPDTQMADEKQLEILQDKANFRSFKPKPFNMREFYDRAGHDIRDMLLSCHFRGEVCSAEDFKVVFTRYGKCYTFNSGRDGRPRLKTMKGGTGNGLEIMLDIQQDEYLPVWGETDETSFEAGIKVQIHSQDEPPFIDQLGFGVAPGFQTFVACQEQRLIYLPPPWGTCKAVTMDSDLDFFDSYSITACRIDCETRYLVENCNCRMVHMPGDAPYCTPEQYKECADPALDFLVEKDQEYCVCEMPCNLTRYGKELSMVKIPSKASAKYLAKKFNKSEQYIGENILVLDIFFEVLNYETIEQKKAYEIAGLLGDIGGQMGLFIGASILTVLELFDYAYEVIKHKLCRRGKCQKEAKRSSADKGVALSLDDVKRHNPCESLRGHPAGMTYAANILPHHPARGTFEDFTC
Description: CHO cells expressing ASIC1a (Charles River) were induced using tetracycline 3–6 h prior to dissociation into a cell suspension.
For recordings of stability and pharmacology using a bolus or “puff” application of ligand, 5 μl of the agonist solution was aspirated and applied to the cell; liquid dispense speed can be set between 1 and 100 μl/s, and a setting of 40 μl/s was used in these experiments. Following agonist addition, 50 μl of the total 90 μl volume in each well is then taken up by the tip to remove most of the agonist solution from the cell. […] For stability experiments, pH 6.5 was applied to each cell followed by a wash with pH 7.4 solution and a wait of 140 s to remove agonist and reverse any desensitization, before a second application of pH 6.5 was made. This sequence was repeated 6–7 times on each cell. For pharmacology experiments, ASIC1a responses were evoked 3 times by pH 6.5 application followed by pre-incubation in the inhibitor for 140 s, after which the inhibitor was co-applied with a pH 6.5 stimulus. Cumulative concentration responses were obtained for each well using 3–4 incrementing concentrations of inhibitor. Concentration response curves for each well were constructed and mean ± S.E.M values for IC50 are given.
To assess the pH sensitivity of ASIC1a responses, pipette tips were loaded with 5 μl of pH 7.4 wash solution followed by 5 μl of activating extracellular solution (pH 7.2 to 4.8). For each sweep, the baseline current was recorded for 1 s in pH 7.4 control solution before the application of the 5-μl activating solution, and then the pH 7.4 wash solution was dispensed with a delay of 1 s to allow for recording of channel opening and desensitization in the presence of ligand before ligand wash-off. Application of the wash solution was followed by aspiration of liquid (50 μl of 90 μl total volume) from each well after a delay of 4 s, before a second wash step with pH 7.4 was performed prior to the application of the next activating pH (interval between stimuli 140 s). Each well received an addition of pH 6.5 solution followed by application of a test pH, and this sequence was repeated a second time to enable data from each cell to be normalized to the control pH 6.5 addition. The pH response curve was constructed across multiple wells with replicates of 48. Pharmacology experiments were performed as described above in “puff” application.
Concentration response curves were fit using a Hill Equation. Statistical comparison of IC50 values for Benzamil was performed using a Student’s t test in Igor Pro 8 (Wavemetrics). […] Z-Factor (Z‘) is calculated using the equation: […]

hASIC1a [2] = molecular target: T1, hASIC1a; assay: cell-based; details: pH 6.5 agonist, QPatch 48 single hole
Description: (§1) CHO hASIC1a cells were cultured according to vendor instructions (B-SYS GmbH) and HEK cells using standard in-house methods. Both cell lines were harvested using optimized protocols and re-suspended in serum-free media (Gibco CHO-S-SFM from Thermo Fisher Scientific for CHO cells, and Ex-Cell 302 from Merck Sigma-Aldrich for HEK cells) to obtain a suspension of cells with smooth membranes and little debris, before transfer to the automated cell hotel consisting of a 60 ml plastic container (Sophion SB2050) and a magnetic stir bar to prevent cell clumping. An aliquot of cells is then aspirated into a 1 ml microcentrifuge tube and spun down (typically 150 g for 2.5 min) and the supernatant discarded before a user-defined volume of external solution is added by the robot and the cells re-suspended to achieve the desired final cell suspension density before application to primed QPlates. Cell capture, sealing and whole-cell access was achieved using optimized QPatch protocols before currents were recorded using a holding potential of −60 mV. […] Cells were washed three times with external pH 7.3 solution (5 μl) between applications of activating acidic solution to establish a stable ASIC1a current baseline. […] Each concentration of reference compound was applied to each cell before (i.e., during each pH 7.3 application period) and during each pH stimulus (IC50 mode). Thus, each concentration of test compound was pre-incubated with cells for at least 2 min before, and then during each acidic solution challenge, before wash-off in a neutral pH 7.3 solution that contained the next concentration of the same compound. Cells were allowed at least 2 min between applications of acidic solution to enable ASIC1a receptors to recover from desensitization.
(§2) Concentration-response xC50 curves from Patchliner and QPatch 48 experiments were calculated by plotting %inhibition (antagonists) or activation (pH) data against concentration in Prism software (GraphPad), using the variable sigmoidal dose-response function to fit the Hill equation with theoretical minimum block of 0% and maximum block of 100% and a free constant for Hill slope.
In addition, this protocol is designed to avoid tachyphylaxis associated with a more acidic pH stimulus, and it allows the development of a ligand-gated ASIC1a channel assay that can distinguish between agonists, partial agonists and antagonists. […] Compounds were tested using the cumulative concentration-response assay format shown in Figure 5A, which includes a 2 min pre-incubation period for each concentration to allow test samples to reach and equilibrate with their binding site(s) in the pore or large extracellular binding domain of ASIC1 receptor trimers. Agonist effects can also be detected during this period as membrane current data is recorded after every liquid addition. […] Mean inhibition data for each test sample is plotted against Log[compound] and fit with a concentration-response function.

hASIC1a [3] = molecular target: T1, hASIC1a; assay: QPatch 48 APC, CHO hASIC1a, multi-hole (10 hole X-plate) recordings; assay type: cell-based; details: multi-hole recordings, QPatch 48
Description: as §1, §2
Before employing a more efficient multi-hole assay it is important to establish that this variant of the APC whole-cell recording format returns the same biophysics and pharmacology as single cell recordings. To this end we ran some of the reference compounds detailed above in 10 hole “X-plate” mode on the QPatch 48.

[4] = 1X single hole chip, Stacked Puff
[5] = 4X multi-hole chip, Stacked Puff

NC(=NCc1ccccc1)NC(=O)c1nc(Cl)c(N)nc1N [Benzamil]
Hill slope (hASIC1a [1]; 1X single hole chip, Puff): 1.07 ± 0.02 | IC50 (hASIC1a [1]; 1X single hole chip, Puff): 1.37 µM | Hill slope (hASIC1a [1]; [4]): 1.26 ± 0.03 | IC50 (hASIC1a [1]; [4]): 2.48 ± 0.18 µM | Hill slope (hASIC1a [1]; 4X multi-hole chip, Puff): 1.18 ± 0.03 and 1.12 ± 0.02 | IC50 (hASIC1a [1]; 4X multi-hole chip, Puff): 1.43 µM and 1.47 µM | Hill slope (hASIC1a [1]; [5]): 1.12 ± 0.02 | IC50 (hASIC1a [1]; [5]): 2.2 ± 0.08 µM | IC50 (hASIC1a [2]; 2 min pre-incubation, read-out: IC50 potency): 4.66 µM | Hill slope (hASIC1a [2]): 1.1 | Hill slope (Hn) (hASIC1a [3]): 1.18 | IC50 (hASIC1a [3]; read-out: IC50): 3.49 µM

N=C(N)NC(=O)c1nc(Cl)c(N)nc1N [Amiloride]
Hill slope (hASIC1a [1]; 1X single hole chip, Puff): 1.20 ± 0.05 | Hill slope (hASIC1a [1]; [4]): 1.39 ± 0.02 | Hill slope (hASIC1a [1]; 4X multi-hole chip, Puff): 1.19 ± 0.02 and 1.14 ± 0.01 | Hill slope (hASIC1a [1]; [5]): 1.24 ± 0.02 | Hill slope (hASIC1a [2]): 0.9 | Hill slope (Hn) (hASIC1a [3]): 0.91
